Format in all cases: cell-based
For assay [1], the target named is T1, TYK2 (Homo sapiens, UniProt P29597). Kind of assay: TYK2 degradation MSD assay in EBV-B cells. Further details: endogenous in cells; host or cells: EBV-B cells. To be noted: 4 to 24 hours incubation, read-out: TYK2 MSD DC50 rating in EBV-B. Put shortly: (§1)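 Compound-driven TYK2 loss is measured with a Meso Scale Discovery sandwich assay on whole-cell lysates. Cells are incubated 4 to 24 hours at 37° C with nine 1:3-diluted doses topping at 1 to 10 μM, and DC50 values derive from four-parameter curve fitting.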

The target in assay [2] is T1, TYK2. Kind of assay: TYK2 degradation MSD assay in human PBMC cells. Further details: endogenous in cells; host or cells: human PBMC. The conditions noted are these: 4 to 24 hours incubation, read-out: TYK2 MSD DC50 rating in human PBMC. Put shortly: as §1
In assay [3] the target is T1, TYK2. Nature of the assay: TYK2 degradation MSD assay in OCI-LY10 cells. On the set-up: endogenous in cells; host or cells: EBV-B cells. The conditions noted are these: 4 to 24 hours incubation, read-out: TYK2 MSD DC50 rating in OCI-LY10. A digest of the protocol:
as §1

T1 sequence (P29597 whole entry): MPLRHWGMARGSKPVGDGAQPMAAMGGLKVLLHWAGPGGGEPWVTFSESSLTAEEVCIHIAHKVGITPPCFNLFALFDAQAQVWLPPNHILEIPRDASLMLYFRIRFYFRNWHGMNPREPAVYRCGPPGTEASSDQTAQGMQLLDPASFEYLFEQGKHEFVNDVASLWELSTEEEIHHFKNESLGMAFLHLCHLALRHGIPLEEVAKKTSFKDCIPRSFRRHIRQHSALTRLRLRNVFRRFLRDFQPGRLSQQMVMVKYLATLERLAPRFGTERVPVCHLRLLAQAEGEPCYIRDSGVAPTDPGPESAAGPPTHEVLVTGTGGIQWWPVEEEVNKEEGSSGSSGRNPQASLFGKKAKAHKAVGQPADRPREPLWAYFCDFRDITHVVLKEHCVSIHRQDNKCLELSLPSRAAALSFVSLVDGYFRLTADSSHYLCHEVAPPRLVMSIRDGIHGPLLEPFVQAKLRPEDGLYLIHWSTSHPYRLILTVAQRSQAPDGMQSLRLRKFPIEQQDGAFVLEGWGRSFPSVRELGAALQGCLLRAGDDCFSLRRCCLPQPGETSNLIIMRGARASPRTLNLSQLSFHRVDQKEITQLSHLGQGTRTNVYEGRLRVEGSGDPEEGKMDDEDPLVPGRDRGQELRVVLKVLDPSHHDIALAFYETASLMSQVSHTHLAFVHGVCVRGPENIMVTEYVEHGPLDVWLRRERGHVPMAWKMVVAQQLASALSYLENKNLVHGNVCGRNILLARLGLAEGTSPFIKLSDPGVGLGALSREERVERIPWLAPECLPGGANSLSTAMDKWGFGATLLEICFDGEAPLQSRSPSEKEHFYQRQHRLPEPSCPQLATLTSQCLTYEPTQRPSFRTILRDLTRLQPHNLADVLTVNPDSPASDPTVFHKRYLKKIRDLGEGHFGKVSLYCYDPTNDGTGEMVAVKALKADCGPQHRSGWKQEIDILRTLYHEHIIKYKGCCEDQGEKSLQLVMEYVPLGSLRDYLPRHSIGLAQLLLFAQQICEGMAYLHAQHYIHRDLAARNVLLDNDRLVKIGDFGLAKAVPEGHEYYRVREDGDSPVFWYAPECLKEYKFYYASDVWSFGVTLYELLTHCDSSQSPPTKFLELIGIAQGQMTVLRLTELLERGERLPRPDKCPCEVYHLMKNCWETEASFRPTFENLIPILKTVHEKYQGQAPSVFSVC

The term DC50 denotes the concentration giving 50% degradation. For the compound `CNc1cc(Nc2cccc(CN3CC4(CCN(c5ccc(-c6ccc7c(c6)n(C)c(=O)n7C6CCC(=O)NC6=O)cn5)CC4)C3)c2)nn2c(C(=O)NC3CC3)cnc12` (stereo not drawn) [Example K586], the DC50 at TYK2 [1] is greater than 100 nM; on TYK2 [2], greater than 100 nM; on TYK2 [3] it was 1 to 10 nM.

Turning to `CNc1cc(Nc2cccc(CN3CCN(C(=O)CCc4ccc(-c5ccc6c(c5)n(C)c(=O)n6C5CCC(=O)NC5=O)cc4)CC3)c2)nn2c(C(=O)NC3CC3)cnc12` (stereo not drawn) [Example K587], the figures for the DC50 at TYK2 [1], on TYK2 [2] and on TYK2 [3] were greater than 100 nM, greater than 100 nM and 1 to 10 nM, respectively.

With `CNc1cc(Nc2cccc(CN3CCC4(CCN(c5ccc(-c6ccc7c(c6)n(C)c(=O)n7C6CCC(=O)NC6=O)cc5)C4)C3)c2)nn2c(C(=O)NC3CC3)cnc12` (stereo not drawn) [Example K588], the figures for the DC50 at TYK2 [1], at TYK2 [2] and at TYK2 [3] were greater than 100 nM, greater than 100 nM and 1 to 10 nM, respectively.

For `CNc1cc(Nc2cccc(CN3CCC(N4CC(N5CCN(c6ccc7c(c6)n(C)c(=O)n7C6CCC(=O)NC6=O)CC5)C4)CC3)c2)nn2c(C(=O)NC3CC3)cnc12` (stereo not drawn) [Example K589], the 50% degradation concentration (DC50) on TYK2 [1] was greater than 100 nM; on TYK2 [2], greater than 100 nM; at TYK2 [3] it was less than 1 nM.

On to `CNc1cc(Nc2cccc(CN3CCC(OC4CC(c5cccc6c5n(C)c(=O)n6C5CCC(=O)NC5=O)C4)CC3)c2)nn2c(C(=O)NC3CC3)cnc12` (stereo not drawn) [Example K590], for which the DC50 on TYK2 [1] was greater than 100 nM; at TYK2 [2] it was greater than 100 nM; at TYK2 [3], less than 1 nM.

For the compound `CNc1cc(Nc2cccc(CN3CCN(c4ccc5c(c4)n(C)c(=O)n5C4CCC(=O)NC4=O)CC3)c2)nn2c(C(=O)NC3CC3)cnc12` (stereo not drawn) [Example K591], the DC50 at TYK2 [1], at TYK2 [2] and at TYK2 [3] was greater than 100 nM each time.

With `CNc1cc(Nc2cccc(CN3CC4(CCN(c5cccc6c5n(C)c(=O)n6C5CCC(=O)NC5=O)CC4)C3)c2)nn2c(C(=O)NC3CC3)cnc12` (stereo not drawn) [Example K592], the DC50 at TYK2 [1] was greater than 100 nM; at TYK2 [2] it was greater than 100 nM; on TYK2 [3], 1 to 10 nM.

With `CNc1cc(Nc2cccc(CN(C)C3CCN(c4ccc5c(c4)n(C)c(=O)n5C4CCC(=O)NC4=O)CC3)c2)nn2c(C(=O)NC3CC3)cnc12` (stereo not drawn) [Example K593], the DC50 at TYK2 [1], at TYK2 [2] and at TYK2 [3] was greater than 100 nM throughout.

On to `CNc1cc(Nc2cccc(CN3CCN(c4cccc5c4n(C)c(=O)n5C4CCC(=O)NC4=O)CC3)c2)nn2c(C(=O)NC3CC3)cnc12` (stereo not drawn) [Example K594], for which the DC50 at TYK2 [1], at TYK2 [2] and on TYK2 [3] was greater than 100 nM each time.

`CNc1cc(Nc2cccc(CN3CCC(OCC#Cc4cccc5c4n(C)c(=O)n5C4CCC(=O)NC4=O)CC3)c2)nn2c(C(=O)NC3CC3)cnc12` (stereo not drawn) [Example K595]: the DC50 at TYK2 [1] was greater than 100 nM; at TYK2 [2], greater than 100 nM; on TYK2 [3], 1 to 10 nM.

On to `CNc1cc(Nc2cccc(CN3CCC(OC4CC(c5ccc6c(c5)n(C)c(=O)n6C5CCC(=O)NC5=O)C4)CC3)c2)nn2c(C(=O)NC3CC3)cnc12` (stereo not drawn) [Example K596], for which the figures for the DC50 on TYK2 [1], on TYK2 [2] and on TYK2 [3] were greater than 100 nM, greater than 100 nM and less than 1 nM, respectively.

With `CNc1cc(Nc2cccc(CN(C)C3CCN(c4cccc5c4n(C)c(=O)n5C4CCC(=O)NC4=O)CC3)c2)nn2c(C(=O)NC3CC3)cnc12` (stereo not drawn) [Example K597], the DC50 on TYK2 [1], on TYK2 [2] and at TYK2 [3] was greater than 100 nM each time.

With `CNC(=O)c1cnc(Nc2ccc(C(=O)NCCCCCCCCc3cc(N4CCCC(C(=O)Nc5ccc(=O)n(CC(=O)OC)c5)C4)ccn3)cn2)cc1Nc1cccc(-c2ncc(F)cn2)c1OC` (stereo not drawn) [Example K598], the half-maximal degradation concentration (DC50) on TYK2 [1], at TYK2 [2] and at TYK2 [3] was greater than 100 nM in each case.

Regarding `CNc1cc(Nc2cccn(-c3ccc(C(=O)NCCCCCCCCc4cncc(N5CCC[C@H](C(=O)Nc6ccc(=O)n(CC(=O)OC)c6)C5)c4)cn3)c2=O)nn2c(C(=O)N[C@@H]3C[C@@H]3F)cnc12` [Example K599], the DC50 at TYK2 [1], at TYK2 [2] and at TYK2 [3] was greater than 100 nM throughout.

For `CNc1cc(Nc2cccc(CN3CCC4(CC3)CCN(c3ccc5c(c3)[nH]c(=O)n5C3CCC(=O)NC3=O)C4)c2)nn2c(C(=O)NC3CC3)cnc12` (stereo not drawn) [Example K601], the DC50 on TYK2 [1], on TYK2 [2] and at TYK2 [3] was greater than 100 nM throughout.

For `CNc1cc(Nc2cccc(CN3CCN(Cc4ccc5c(c4)n(C)c(=O)n5C4CCC(=O)NC4=O)CC3)c2)nn2c(C(=O)NC3CC3)cnc12` (stereo not drawn) [Example K602], the DC50 on TYK2 [1], at TYK2 [2] and at TYK2 [3] was greater than 100 nM throughout.

For the compound `CNc1cc(Nc2cccc(CN3CC(N4CCN(c5ccc6c(c5)n(C)c(=O)n6C5CCC(=O)NC5=O)CC4)C3)c2)nn2c(C(=O)NC3CC3)cnc12` (stereo not drawn) [Example K603], the figures for the DC50 at TYK2 [1], on TYK2 [2] and at TYK2 [3] were greater than 100 nM, greater than 100 nM and 1 to 10 nM, respectively.

For `CNc1cc(Nc2cccc(CN3CC4(C3)CN(c3ncc(C#Cc5ccc6c(c5)n(C)c(=O)n6C5CCC(=O)NC5=O)cn3)C4)c2)nn2c(C(=O)NC3CC3)cnc12` (stereo not drawn) [Example K604], the values for the DC50 at TYK2 [1], on TYK2 [2] and on TYK2 [3] were greater than 100 nM, greater than 100 nM and less than 1 nM, respectively.

`CNc1cc(Nc2cccc(CN(C)Cc3ccc(-c4ccc5c(c4)n(C)c(=O)n5C4CCC(=O)NC4=O)cn3)c2)nn2c(C(=O)NC3CC3)cnc12` (stereo not drawn) [Example K605]: the DC50 at TYK2 [1], at TYK2 [2] and at TYK2 [3] was greater than 100 nM in each case.

Turning to `CNc1cc(Nc2cccc(CN3CCC(CN(C)c4ccc5c(c4)n(C)c(=O)n5C4CCC(=O)NC4=O)CC3)c2)nn2c(C(=O)NC3CC3)cnc12` (stereo not drawn) [Example K606], the DC50 at TYK2 [1], at TYK2 [2] and on TYK2 [3] was greater than 100 nM in each case.

For `CNc1cc(Nc2cccc(CN3CC(C)(Cc4ccc5c(c4)n(C)c(=O)n5C4CCC(=O)NC4=O)C3)c2)nn2c(C(=O)NC3CC3)cnc12` (stereo not drawn) [Example K607], the DC50 on TYK2 [1], on TYK2 [2] and on TYK2 [3] was greater than 100 nM in each case.

As to `CNc1cc(Nc2cccc(CN3CCCC4(C3)CN(c3ncc(C#Cc5ccc6c(c5)n(C)c(=O)n6C5CCC(=O)NC5=O)cn3)C4)c2)nn2c(C(=O)NC3CC3)cnc12` (stereo not drawn) [Example K608], the values for the DC50 at TYK2 [1], at TYK2 [2] and at TYK2 [3] were greater than 100 nM, greater than 100 nM and 1 to 10 nM, respectively.

`CNc1cc(N2CCc3c(-c4ccc(CN5CCC6(CC5)CCN(c5ccc(-c7ccc8c(c7)n(C)c(=O)n8C7CCC(=O)NC7=O)cc5)CC6)cn4)cccc32)nn2c(C(=O)N[C@@H]3C[C@@H]3F)cnc12` (stereo partly drawn) [Example K609]: the DC50 at TYK2 [1] is greater than 100 nM; on TYK2 [2], greater than 100 nM; on TYK2 [3], 1 to 10 nM.

Take `CNc1cc(Nc2cccc(CN3CC4(C3)CN(c3ccc(-c5ccc6c(c5)n(C)c(=O)n6C5CCC(=O)NC5=O)cc3)C4)c2OC)nn2c(C(=O)N[C@@H]3C[C@@H]3F)cnc12` (stereo partly drawn) [Example K610]: the DC50 at TYK2 [1], at TYK2 [2] and at TYK2 [3] was greater than 100 nM each time.

Take `CNc1cc(Nc2cccc(-c3ccc(CN4CCN(c5ccc(-c6ccc7c(c6)n(C)c(=O)n7C6CCC(=O)NC6=O)cc5)CC4)cn3)c2C(F)F)nn2c(C(=O)N[C@@H]3C[C@@H]3F)cnc12` (stereo partly drawn) [Example K611]: the DC50 on TYK2 [1] is greater than 100 nM; on TYK2 [2], greater than 100 nM; on TYK2 [3] it was 1 to 10 nM.

On to `CNc1cc(Nc2cccc(CN3CCN(CCc4ccc5c(c4)n(C)c(=O)n5C4CCC(=O)NC4=O)CC3)c2)nn2c(C(=O)NC3CC3)cnc12` (stereo not drawn) [Example K612], for which the DC50 is greater than 100 nM on TYK2 [1], greater than 100 nM on TYK2 [2] and 10 to 100 nM on TYK2 [3].

Regarding `CNc1cc(Nc2cccc(CN3CCN(CCc4ccc5c(c4)n(C)c(=O)n5C4CCC(=O)NC4=O)CC3)c2)nn2c(C(=O)NC3CC3)cnc12` (stereo not drawn) [Example K613], the DC50 is greater than 100 nM at TYK2 [1], greater than 100 nM on TYK2 [2] and 1 to 10 nM on TYK2 [3].

Turning to `CNc1cc(Nc2cccc(CN3CC4(CCN(c5ccc6c(c5)n(C)c(=O)n6C5CCC(=O)NC5=O)CC4)C3)c2)nn2c(C(=O)NC3CC3)cnc12` (stereo not drawn) [Example K614], the DC50 at TYK2 [1], on TYK2 [2] and on TYK2 [3] was greater than 100 nM each time.

On to `CNc1cc(Nc2cccc(-c3ccc(CN4CCN(c5ccc(-c6ccc7c(c6)n(C)c(=O)n7C6CCC(=O)NC6=O)cc5)CC4)cn3)c2OC)nn2ccnc12` (stereo not drawn) [Example K615], for which the half-maximal degradation concentration (DC50) on TYK2 [1], on TYK2 [2] and on TYK2 [3] was greater than 100 nM throughout.

Consider `CNc1cc(N2CCc3c(-c4ccc(C(=O)N5CCN([C@H]6CC[C@H](c7ccc(-c8ccc9c(c8)n(C)c(=O)n9C8CCC(=O)NC8=O)cc7)CC6)CC5)cn4)cccc32)nn2c(C(=O)N[C@@H]3C[C@@H]3F)cnc12` (stereo partly drawn) [Example K616], for which the values for the DC50 at TYK2 [1], at TYK2 [2] and on TYK2 [3] were greater than 100 nM, greater than 100 nM and 1 to 10 nM, respectively.

For `CNc1cc(Nc2cccc(-c3ccc(C(=O)N4CCN(C5CCC(c6ccc(-c7ccc8c(c7)n(C)c(=O)n8C7CCC(=O)NC7=O)cc6)CC5)CC4)cn3)c2OC)nn2c(C(=O)N[C@@H]3C[C@@H]3F)cnc12` (stereo partly drawn) [Example K617], the figures for the DC50 on TYK2 [1], on TYK2 [2] and on TYK2 [3] were greater than 100 nM, greater than 100 nM and less than 1 nM, respectively.

For `CNc1cc(Nc2cccn(-c3ccc(C(=O)NCCOCCOCCOCCOCCNc4cncc(N5CCCC(C(=O)Nc6ccc(=O)n(CC(=O)OC)c6)C5)c4)cn3)c2=O)nn2c(C(=O)N[C@@H]3C[C@@H]3F)cnc12` (stereo partly drawn) [Example K618], the DC50 at TYK2 [1], at TYK2 [2] and on TYK2 [3] was greater than 100 nM each time.

The values are drawn from patent publication US20250051338A1, “TYK2 DEGRADERS AND USES THEREOF” (Kymera Therapeutics, Inc., priority 2021, published 2025).
